Assay results as given in article PMC8891364, “Synthesis, and docking studies of novel heterocycles incorporating the indazolylthiazole moiety as antimicrobial and anticancer agents” (Scientific Reports, 2022).
Converted amounts (≈) assume the structure as drawn. “And” between values parts separate entries of the source, which are not always exact repeats. Identical values can stand only once.

Tests used:
HFB-4 cells = experiment: MTT cytotoxicity assay, normal human melanocytes; format: cell-based; details: Melanocyte, 48 h
Experimental: (§1) The human melanocytes (HFB-4) cells, hepatoma (HepG-2) cells, and colon carcinoma (Caco-2) cells were obtained from American Type Culture Collection (ATCC, USA). The cytotoxicity of the newly synthesized compounds (at various concentrations) was determined using the 3-[4, 5-dimethylthiazol]-2, 5-diphenyltetrazolium bromide method (MTT assay)[59] against HFB-4 cells (normal human melanocytes), HepG-2 cells (hepatoma), and Caco-2 cells (colon carcinoma). Normal and cancer cells (1.0 × 10^4) were cultured in sterile 96-well microplates, and incubated for 24 h in DMEM (Lonza, USA) supplemented with 10% fetal bovine serum (Gibco, USA) for HFB-4 and Caco-2 cells or in an RPMI-1640 medium (Lonza, USA) supplemented with 10% FBS for HepG-2 cells. After 24 h of incubation, different doses of the tested synthesized compounds ([…]) were added in triplicate to all cells and incubated for another 48 h in 5% CO2. After washing the cells 3 times with fresh media, to remove dead cells and debris, a solution of MTT (Sigma -Aldrich, 0.5 mg/mL) was added to each well and further incubated for 2–5 h at 37 °C. Afterward, the MTT solution was decanted and 200 µL of DMSO was added. The optical density was measured at 570 nm using a microplate reader (BMG LabTech, Germany), where the cells’ relative viability (%) was estimated using the following equation: viability of cells (%) = [A1 − A0/AU − A0] × 100, where A1 is the absorbance of the test compound, A0 is the absorbance of the blank, and AU is the absorbance of untreated cells (control).
(§2) The antitumor activity of the synthesized compound was determined by calculating the IC50 value (half maximal inhibitory concentration) using Graph Pad Prism 6.0 software. The value of IC50 indicates the derivative concentration that causes 50% cell death, whereas the value of the selectivity index (SI), indicating the ratio of the IC50 value of normal cells versus the IC50 value of tumor cells, was also included as reported by[60],[61].

HepG-2 cells = experiment: MTT antitumor assay, hepatoma cells; format: cell-based, human; details: for IC50: Homo sapiens, HepG2, 48 h; for SI HepG-2: ratio of IC50 of normal cells (HFB-4) versus IC50 of tumor cells
Experimental: as §1, §2

Caco-2 cells [1] = experiment: MTT antitumor assay, colon carcinoma cells; format: cell-based; details: for IC50: Homo sapiens, Caco-2, 48 h; for SI Caco-2: ratio of IC50 of normal cells (HFB-4) versus IC50 of tumor cells
Experimental: as §1, §2

Bcl-2 gene = experiment: qRT-PCR gene expression in HepG-2 and Caco-2 cells; format: cell-based, human; details: for gene expression of Bcl-2: HepG-2 and Caco-2 cells, IC50 concentrations, 2 days, compared to 5-FU and untreated cells; for downregulation of Bcl-2 expression, fold: compared to control cells
Experimental: (§3) The effects of the potent antitumor derivatives (4, 6, and 8) on the expression level of some tumor regulating genes were elucidated through quantitative real-time PCR (qRT- PCR) and compared to 5-fluorouracil (5-FU) as a reference antitumor drug. Five genes were assessed, including the tumor oncogene (Bcl-2), tumor suppressor gene (p53), matrix metalloproteinase gene (MMP-9), vascular endothelial growth factor gene (VEGF), and beta-catenin protein gene (β-catenin), in HepG-2 and Caco-2 cells, before and after treatment for 2 days with IC50 concentrations for compounds 4, 6, and 8. Following the extraction of total RNA from the tested cells, using the Gene JET RNA Purification Kit (Thermo Scientific, USA), cDNA synthesis was performed according to the cDNA Synthesis Kit protocol (Thermo Scientific, USA). qRT PCR was performed using the SYBR green kit and specific primers (Forward/Reverse) as follows: 5′-[…]-3'/5'-TCG GTCTCCTAAAAGCAGGC-3′ for the Bcl-2 gene, 5′-TAACAGTTCCTGCATG GG CG GC-3′/5′-[…]-3′ for p53, 5'-CTGCGTATTTCCATT CATC-3'/5'-CCTTGGGTCAGGTTTAGAG-3' for the MMP-9 gene, 5'-GGCTTTACT GCTGTACCTCC-3'/5'-CAAATGCTTTCTCCGCTCT-3' for the VEGF gene, and 5'-CATATGCGGCTGCTG TTCTA-3'/5'-CCGAAAG CCGTTTCTTGTAG-3' for the β-catenin gene. The upregulation and/or downregulation of the expression of the tested genes in Caco-2 and HepG-2 cells was determined by using the equation 2^−ΔΔCT[60].

MMP-9 gene = experiment: qRT-PCR gene expression in HepG-2 and Caco-2 cells; format: cell-based, human; details: IC50 concentrations, 2 days, compared to 5-FU and untreated cells
Experimental: as §3

VEGF gene = experiment: qRT-PCR gene expression in HepG-2 and Caco-2 cells; format: cell-based, human; details: IC50 concentrations, 2 days, compared to 5-FU and untreated cells
Experimental: as §3

β-catenin gene = experiment: qRT-PCR gene expression in HepG-2 and Caco-2 cells; format: cell-based, human; details: IC50 concentrations, 2 days
Experimental: as §3

Caco-2 cells [2] = experiment: Cell cycle arrest analysis by flow cytometry; format: cell-based, human; details: 48 h, IC50 concentrations, vs untreated control
Experimental: The cell cycle arrest of treated Caco-2 cells was evaluated through flow cytometry (Partec, Germany) in comparison with untreated cells and treated cells with 5-FU as a positive control[60],[62]. […] After washing the cells three times, the cells were fixed by adding 1 mL of 70% cold ethanol dropwise with a gentle vortex. Caco-2 cells were washed three times again with cold PBS and incubated in 1 mL of PBS containing 5 μg/mL RNase A (Sigma-Aldrich) for 1 h at 37 °C. Then 10 μL of PI (Sigma-Aldrich) was added to cells at a final concentration of 1 mg/mL in deionized water and left at 4 °C until analysis in the dark. The cell cycle of Caco-2 cells before and after treatment was analyzed by FACS using Cell Quist and Mod Fit software by reading at 488 nm.

[3] = system: Candida albicans ATCC 10231; experiment: Antimicrobial microtiter-plate MIC assay; format: cell-based; details: Candida albicans, ATCC10231; 24 h, 37 °C
Experimental: (§4) The antimicrobial activity of the newly synthesized compounds (2–9) was evaluated against three model pathogenic microorganisms as follows: Streptococcus mutans ATCC 25175 (Gram-positive bacterium); Pseudomonas aeruginosa ATCC 27853 (Gram-negative bacterium); and Candida albicans ATCC 10231 (fungi-like unicellular organism). After cultivating the three tested pathogens overnight in LB broth, 100 µL of each tested organism (10^6 CFU/mL) was added separately to 100 µL of the serially diluted test compounds (5–80 µg) in a 96-well tissue culture plate and incubated at 37 °C for 24 h. Eventually, microbial growth was measured at 600 nm, and the results are presented in the form of MIC (Table 4). Two antibacterial reference drugs, ampicillin and ciprofloxacin, and one antifungal drug, clotrimazole, were incorporated into the experiments.

[4] = system: Pseudomonas aeruginosa ATCC 27853; experiment: Antimicrobial microtiter-plate MIC assay; format: cell-based; details: Pseudomonas aeruginosa, ATCC27853; 24 h, 37 °C
Experimental: as §4

[5] = system: Streptococcus mutans ATCC 25175; experiment: Antimicrobial microtiter-plate MIC assay; format: cell-based; details: Streptococcus mutans, ATCC25175, 24 h, read-out: MIC Streptococcus mutant
Experimental: as §4

Pseudomonas aeruginosa = experiment: Microbial-biofilm inhibition, tissue-culture plate technique (TCP); format: cell-based; details: 25 µg/mL, 24 h
Experimental: (§5) The activity of the newly synthesized compounds against microbial biofilm formation was estimated through the tissue-culture plate technique (TCP) as follows: the three above-mentioned pathogens, Streptococcus mutans, Pseudomonas aeruginosa, and Candida albicans were cultivated overnight in LB broth at 37 °C. Afterward, 200 µL of each diluted organism (10^6 CFU/mL) was inoculated separately (in triplicate) into 96-well tissue culture plates and incubated overnight at 37 °C. The free planktonic cells were removed, after the incubation period, by flipping the plate and washing each well three times with phosphate-buffered-saline (PBS), pH 7.1. To each well, 175 µL of fresh LB broth was added along with 25 µL of the tested compound (25 µg/mL final concentrations). The plates were reincubated at 37 °C for another 24 h, washed with PBS buffer pH 7.1 three times, and dried for 5 min at 50 °C. The formed biofilm was stained with crystal violet solution (0.1% w/v) for 5 min. The excess stain was decanted, and the stained biofilm was solubilized with 200 µL of glacial acetic acid (30% v/v), where the developed blue color was measured at 590 nm. The results are expressed as relative inhibition (%) compared to untreated groups (control). Controls were prepared by culturing the three pathogens on LB medium without any tested compounds.

Streptococcus mutans = experiment: as above; format: cell-based; details: 25 µg/mL, 24 h
Experimental: as §5

Candida albicans = experiment: as above; format: cell-based; details: Candida albicans, 24 h, relative to untreated
Experimental: as §5

| Structure (SMILES) | IC50 (HFB-4 cells) | IC50 (HepG-2 cells; MTT, 48 h) | SI HepG-2 (HepG-2 cells) | IC50 (Caco-2 cells [1]; MTT, 48 h) | SI Caco-2 (Caco-2 cells [1]) | gene expression of Bcl-2 (Bcl-2 gene) | downregulation of Bcl-2 expression, fold (Bcl-2 gene) | gene expression of MMP-9 (MMP-9 gene) | gene expression of VEGF (VEGF gene) | expression of the β-catenin gene (β-catenin gene) | apoptotic phase (sub-G1) population (Caco-2 cells [2]) | synthesis (S) phase population (Caco-2 cells [2]) | MIC [3] | MIC [4] | MIC [5] | antibiofilm formation activity Streptococcus mutans (in words) (Streptococcus mutans) | other results |
| --- | --- | --- | --- | --- | --- | --- | --- | --- | --- | --- | --- | --- | --- | --- | --- | --- | --- |
| N#Cc1c(N)oc2nc(N3NC4=C(CCCC4)C3c3ccccc3)sc12 (centres unmarked) [Compound 4, 5-amino-2-(3-phenyl-1,3,4,5,6,7-hexahydro-2H-indazol-2-yl)furo[2,3-d] thiazole-6-carbonitrile] | 142 ± 1.48 µg/mL (≈ 392 µM) | 7.88 ± 0.1 µg/mL (≈ 21.7 µM) | 18.1 and 18.06 ± 0.19 | 6.18 ± 1.14 µg/mL (≈ 17 µM) | 23 and 23.03 ± 0.24 | significantly downregulated | more than threefold | significantly downregulated | significantly downregulated | significantly suppressed | becomes detectable after treatment | decreased | 48.9 ± 1.05 µg/mL (≈ 135 µM) | 60.8 ± 2.22 µg/mL (≈ 167 µM) | 34.41 ± 0.237 µg/mL (≈ 94.7 µM) | had antibiofilm formation activities | biofilm inhibition activity Pseudomonas aeruginosa (in words) (Pseudomonas aeruginosa): high biofilm inhibition activity |
| NNC(=O)c1c(N)sc2sc(N3NC4=C(CCCC4)C3c3ccccc3)nc12 (centres unmarked) [Compound 6, 5-amino-2-(3-phenyl-1,3,4,5,6,7-hexahydro-2H-indazol-2-yl)thieno[3,2-d] thiazole-6-carbohydrazide] | 133 ± 4.18 µg/mL (≈ 323 µM) | 6.12 ± 0.19 µg/mL (≈ 14.8 µM) | 21.8 and 21.75 ± 0.03 | 5.21 ± 0.22 µg/mL (≈ 12.6 µM) | 25.6 and 25.59 ± 0.03 | significantly downregulated | more than threefold | significantly downregulated | significantly downregulated | significantly suppressed | becomes detectable after treatment | decreased | 57.3 ± 1.32 µg/mL (≈ 139 µM) | 58.5 ± 2.27 µg/mL (≈ 142 µM) | 39.58 ± 0.348 µg/mL (≈ 95.9 µM) |  | inhibition at 25 µg/mL (Candida albicans): 61% |
| N#CCc1nn(N)c2nc(N3NC4=C(CCCC4)C3c3ccccc3)sc12 (centres unmarked) [Compound 8, 2-(1-amino-5-(3-phenyl-1,3,4,5,6,7-hexahydro-2H-indazol-2-yl)-1H-pyrazolo [3,4-d]thiazol-3-yl)acetonitrile] | 154 ± 1.76 µg/mL (≈ 407 µM) | ~5.9 µg/mL (≈ 15.6 µM) | 26.23 ± 0.30 | ~5.9 µg/mL (≈ 15.6 µM) | 26.08 ± 0.30 | significantly downregulated | more than threefold | significantly downregulated | significantly downregulated | significantly suppressed | becomes detectable after treatment | decreased | 56.2 ± 1.24 µg/mL (≈ 149 µM) | 53 ± 2.18 µg/mL (≈ 141 µM) | 15.8 ± 0.205 µg/mL (≈ 41.8 µM) | had antibiofilm formation activities | IC50 HepG-2 (HepG-2 cells; MTT, 48 h): 5.86 ± 0.34 µg/mL (≈ 15.5 µM); SI HepG-2 (HepG-2 cells; listed as Derivative 8): about 26; IC50 Caco-2 (Caco-2 cells [1]; MTT, 48 h): 5.89 ± 0.38 µg/mL (≈ 15.6 µM); SI Caco-2 (Caco-2 cells [1]; listed as Derivative 8): about 26 |
